# Measurements from patent publication US20060128792A1, “Deguelin as a chemopreventive agent for lung cancer” (priority 2002, published 2006).
# Assays:
# [1] = tested on: chorioallantoic membrane (CAM) vessel formation; test: CAM assay, anti-angiogenic activity; assay type: in vivo, chick embryos
# Method: The anti-angiogenic activity of deguelin was assessed using a CAM assay. Chick embryos were incubation for 3 days after which, about 2 ml of egg albumin was removed from the embryo with a hypodermic needle to allow the CAM and yolk sac to drop away from the shell membrane. On day 3.5, the shell was punched out and removed and the shell membrane was peeled away. […] After the two day incubation period, 500 μl of 10% fat emulsion was injected into the chorioallantoic membrane and observed microscopically.
# Retinoic acid, an anti-angiogenic compound, was used as a positive control for determining anti-angiogenic response. […] This independent experiment was repeated three times with more than 20 eggs.
# 1799 cells = test: Apoptosis assay (TUNEL, APO-BRDU kit, flow cytometry; DNA fragmentation); assay type: cell-based; conditions: for apoptosis in 1799 cells (TUNEL, flow cytometry): 3 days
# Method: Apoptosis assay. Normal, premalignant, and malignant HBE cells were exposed to v various doses of deguelin for 3 days. […] Both adherent and floating cells were combined for the assessment of apoptosis using the APO-BRDU staining kit (Phoenix Flow Systems, San Diego, Calif.). Briefly, floating and attached cells dispersed with trypsin-EDTA were pelleted, washed, and fixed by 1% paraformaldehyde followed by 70% ethanol. The fixed cells were washed and incubated with DNA-labeling solution containing terminal deoxynucleotidyl transferase (TdT) reaction buffer, TdT enzyme, and bromodeoxyuridine triphosphate (Br-dUTP). Cells were rinsed, resuspended with fluorescein-PRB-I antibody solution, and analyzed by flow cytometry in the presence of PI/RNase solution. All analyses were performed based on 3000 to 10,000 events using a FACScan flow cytometer (Becton Dickinson, San Jose, Calif.) equipped with a 488-nm argon ion laser and CellQuest software. A dual display of DNA area (linear red fluorescence) and Br-dUTP incorporation (FITC-PRB-1) was used to determine the percentage of apoptotic cells.
# The percentage of dead cells was determined by fluorescent-activated cell sorting (FACS) analysis of PI-stained nuclei. Apoptosis was also determined by the detection of nucleosomal DNA fragmentation, which was measured using the TACS apoptotic DNA Jaddering kit (Trevigen, Inc., Gaithersburg, Md.) according to the manufacturer's protocol. […] Apoptosis was analyzed using the APO-BRDU staining kit (Phoenix Flow Systems) as described above.
# COX-2 = test: COX-1 and COX-2 expression by northern and western blotting; assay type: cell-based; conditions: premalignant cells (1799, squamous HBE); 1 nM, 10 nM or 100 nM
# Method: COX-2 on the other hand, is found to be induced and expressed in neoplastic growth. […] Thus, it was determined whether deguelin regulates the expression of COX-2 in lung cancer cells. Normal, premalignant, and malignant lung cancer cells, NHBE, 1799, 1198, and 1170, were treated with 1 nM, 10 nM, or 100 nM deguelin for 1 day and COX-1 and COX-2 expression were analyzed by northern blotting.
# In this study, the protein and mRNA expression of COX-1 and COX-2 were tested in 1799 and squamous (Sq) HBE cells. These cells were treated with 1 nM, 10 nM, or 100 nM deguelin and the COX-1 and COX-2 RNA and analyzed by northern blotting and western blotting. Equal amount of mRNA in each lane was confirmed by northern blot analysis using GAPDH (data not shown).
compound,measurement,setting,value
COc1cc2c(cc1OC)[C@@H]1C(=O)c3ccc4c(c3O[C@@H]1CO2)C=CC(C)(C)O4 [Deguelin],anti-angiogenic activity (percentage of positive eggs),"[1]; 5 nmol/egg, 2 days",59.2%
same,egg lethality,"[1]; CAM assay, without any signs of thrombosis and hemorrhage",negligible
same,"induction of apoptosis, Ad5CMV-Myr.Akt.HA-infected 1799 cells","1799 cells; 10^−7 M deguelin, 2 days",less than 10%
same,"induction of apoptosis, uninfected or empty virus-infected 1799 cells","1799 cells; 10^−7 M deguelin, 2 days",About 40%
same,"apoptosis in 1799 cells (TUNEL, flow cytometry)",1799 cells; 10^−7 M deguelin,more than 90%
same,"apoptosis in 1799 cells (TUNEL, flow cytometry)",1799 cells; 10^−8 M deguelin,68.5%
same,DNA fragmentation in 1799 cells,"1799 cells; three days of treatment, dose-dependent",induced the generation of nucleosomal-sized ladders of DNA fragments
same,induced COX-2 expression,COX-2,downregulated
